Experimental data from ChEMBL document CHEMBL1201862, “PubChem BioAssay data set” (2004).
Calls of active or inactive are those of the source.

Experiments:
[1] = biological target: Melanin-concentrating hormone receptor 1 (Homo sapiens, UniProt Q99705); assay: Fluorescence-based counterscreen for antagonists of the G-protein coupled receptor 7 (GPR7): cell-based high throughput dose response assay to identify antagonists of the melanin-concentrating hormone receptor 1 (MCHR1).; format: functional
[2] = biological target: Luciferin 4-monooxygenase (Photinus pyralis, UniProt P08659); assay: Counter Screen for Luciferase-based Assay Positives. [Related pubchem assays: 620, 618, 411 ]
[3] = biological target: T1, Heat shock factor protein 1 (Mus musculus, UniProt P38532); assay: inhibition of MG132-induced HSE-luciferase signal, confirmation, cell-based, NIH3T3, luminescence, dose retest (AID 2382); format: functional;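 further: NIH3T3 fibroblasts with HSF1-driven luciferase reporter stressed by proteasome inhibitor MG132; luminescence from HSF1-driven luciferase expression after 8 hours of MG132 stress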
T1 sequence (P38532 whole entry): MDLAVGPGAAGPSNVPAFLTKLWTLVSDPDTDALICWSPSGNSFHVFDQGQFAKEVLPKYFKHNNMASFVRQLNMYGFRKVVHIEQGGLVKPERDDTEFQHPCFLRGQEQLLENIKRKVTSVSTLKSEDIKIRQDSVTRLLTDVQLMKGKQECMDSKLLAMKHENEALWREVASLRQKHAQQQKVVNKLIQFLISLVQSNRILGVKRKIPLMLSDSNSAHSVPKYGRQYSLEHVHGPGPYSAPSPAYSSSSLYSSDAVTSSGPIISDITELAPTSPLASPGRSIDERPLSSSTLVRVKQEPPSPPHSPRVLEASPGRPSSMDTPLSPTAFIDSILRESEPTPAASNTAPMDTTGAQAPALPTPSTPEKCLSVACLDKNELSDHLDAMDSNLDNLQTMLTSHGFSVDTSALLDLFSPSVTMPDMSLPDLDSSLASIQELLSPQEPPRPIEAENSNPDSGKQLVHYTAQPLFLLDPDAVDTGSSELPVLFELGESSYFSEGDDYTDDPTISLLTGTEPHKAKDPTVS

[4] = Luminescence-based counterscreen assay for KLF5 inhibitors: dose response cell-based high throughput screening assay to identify cytotoxic compounds using the IEC-6 intestinal epithelial cell line. [Related pubchem assays: 1700 (Primary screen.), 1834 (Confirmation screen.), 1858 (Summary AID.), 1905 (Counterscreen.)]; format: functional
[5] = system: HT-1080; assay: cytotoxicity in HT1080 fibrosarcoma cells, cell-based, fluorescence readout (AID 620); format: functional; settings: Homo sapiens
[6] = cytotoxicity in HEK-293T cells, dose response, cytotoxicity control for TCR NF-kB inhibitor project, luminescence, T-cell screen hits (AID 489026); format: functional, cell-based;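 further: cells exposed to compound about 14 hours before the viability readout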
[7] = biological target: T2, Microphthalmia-associated transcription factor (Homo sapiens, UniProt O75030); assay: TRPM1 promoter luciferase signal decrease, dose response, MITF inhibitor project, cell-based, SK-MEL-5, cherry-picked, set 3 (AID 493073); format: functional
T2 sequence (O75030 whole entry): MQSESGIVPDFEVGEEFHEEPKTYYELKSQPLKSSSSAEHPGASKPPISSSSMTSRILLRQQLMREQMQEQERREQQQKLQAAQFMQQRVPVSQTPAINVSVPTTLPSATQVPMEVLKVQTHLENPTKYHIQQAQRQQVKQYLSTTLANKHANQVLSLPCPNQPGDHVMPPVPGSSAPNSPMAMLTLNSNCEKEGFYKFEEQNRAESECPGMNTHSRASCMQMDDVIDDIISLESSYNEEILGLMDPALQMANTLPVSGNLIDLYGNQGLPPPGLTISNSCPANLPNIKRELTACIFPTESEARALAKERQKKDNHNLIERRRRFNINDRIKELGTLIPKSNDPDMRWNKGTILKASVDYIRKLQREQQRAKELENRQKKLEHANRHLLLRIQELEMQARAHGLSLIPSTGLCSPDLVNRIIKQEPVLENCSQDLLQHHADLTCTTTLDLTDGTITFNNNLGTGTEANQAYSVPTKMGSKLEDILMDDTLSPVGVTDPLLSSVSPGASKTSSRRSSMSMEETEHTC

[8] = Shn3 3'UTR reporter inhibitors, dose response, cell-based, Clone20 osteoblasts, firefly luciferase, cherry-picked (AID 624132); format: functional;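 further: firefly luciferase luminescence from reporter carrying the Shn3 3'UTR in osteoblasts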
[9] = inhibitors of HIV Env-driven cell fusion, dose response, cherry-pick (AID 652057); format: functional, cell-based
[10] = ZM109 Env clade C HIV-1 fusion inhibitors, dose response, HeLa effector, CEM target cells, luciferase, cherry-pick (AID 652058); format: functional, cell-based
[11] = biological target: Paired box protein Pax-8 (Homo sapiens, UniProt Q06710); assay: inhibitors of PAX8-driven TPO luciferase reporter, dose response, RMG-I cells, cherry-pick (AID 687027); format: functional, cell-based;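 further: luciferase reporter driven by Pax8 target thyroperoxidase promoter measured by SteadyGlo luminescence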
[12] = off-target signal loss in HeLa-CEM21 co-culture – HeLa F-luc CTL cells, cherry-picked, counter-screen for HIV-1 Env fusion inhibitor project, dose response (AID 652040); format: functional, cell-based;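 further: potency for signal decrease marking cytotoxic or nonspecific inhibition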
[13] = inhibitors of clade B AD8 Env fusion, dose response, cell-based, cherry-pick (AID 652062); format: functional;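 further: luciferase signal from cell-cell fusion driven by HIV-1 clade B AD8 Env; potency is for inhibitors of fusion seen as a drop in luminescence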
[14] = reduction of Shn3 3'UTR firefly luciferase signal, dose response, Schnurri-3 inhibitor project, cell-based, Clone20 osteoblasts, cherry-pick, set 2 (AID 720490); format: functional;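 further: actives lower the luminescence signal as inhibitors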
[15] = non-specific cell cytotoxicity, dose response, cytotoxicity control for PAX8 inhibitor project, plate reader, dry powder samples (AID 743021); format: functional, cell-based
[16] = biological target: Neuropeptide Y receptor type 2 (Homo sapiens, UniProt P49146); assay: Fluorescence-based counterscreen for agonists of NPY-Y1: cell-based high-throughput dose response assay for agonists of NPY-Y2.; format: functional
[17] = system: HEK293; assay: Fluorescence-based counterscreen for potentiators or agonists of NPY-Y1: cell-based high-throughput dose response assay for inhibitors of cyclic nucleotide gated ion channel (CNGC) activity. In this assay, the parental HEK293 cell line transfected with a cyclic-nucleotide gated ion channel (CNGC)-based cAMP sensor is used to measure inhibition of isoproterenol-induced CNGC …; format: functional; settings: Homo sapiens
[18] = biological target: Neuropeptide Y receptor type 1 (Homo sapiens, UniProt P25929); assay: Fluorescence-based dose response cell-based high-throughput screening assay for agonists of NPY-Y1. [Related pubchem assays: 1697 (Screening assay (NPY-Y1 agonists).), 1359 (Screening assay (NPY-Y2 potentiators or agonists).), 1304 (Screening assay (NPY-Y1 potentiators or agonists).), 1704 (Screening assay (CNGC inhibitors).), 1791 (Summary AID.)]; format: functional
[19] = biological target: T3, Alkaline phosphatase, tissue-nonspecific isozyme (Homo sapiens, UniProt P05186)
T3 sequence (P05186 whole entry): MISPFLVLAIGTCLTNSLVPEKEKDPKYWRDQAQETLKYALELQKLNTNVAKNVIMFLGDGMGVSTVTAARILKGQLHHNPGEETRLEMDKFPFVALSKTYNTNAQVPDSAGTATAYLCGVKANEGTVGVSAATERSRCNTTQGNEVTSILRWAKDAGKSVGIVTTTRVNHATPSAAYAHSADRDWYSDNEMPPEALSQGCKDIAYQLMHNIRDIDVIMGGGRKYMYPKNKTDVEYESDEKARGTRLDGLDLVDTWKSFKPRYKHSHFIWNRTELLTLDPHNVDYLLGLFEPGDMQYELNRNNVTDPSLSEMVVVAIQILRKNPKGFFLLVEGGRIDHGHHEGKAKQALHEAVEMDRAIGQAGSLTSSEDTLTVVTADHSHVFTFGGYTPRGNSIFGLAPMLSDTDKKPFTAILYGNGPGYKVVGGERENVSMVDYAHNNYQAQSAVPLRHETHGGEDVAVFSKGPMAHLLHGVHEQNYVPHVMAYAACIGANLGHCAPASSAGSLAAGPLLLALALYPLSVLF

[20] = biological target: T4, DNA repair protein RAD52 homolog (Homo sapiens, UniProt P43351); format: functional, biochemical
T4 sequence (P43351 whole entry): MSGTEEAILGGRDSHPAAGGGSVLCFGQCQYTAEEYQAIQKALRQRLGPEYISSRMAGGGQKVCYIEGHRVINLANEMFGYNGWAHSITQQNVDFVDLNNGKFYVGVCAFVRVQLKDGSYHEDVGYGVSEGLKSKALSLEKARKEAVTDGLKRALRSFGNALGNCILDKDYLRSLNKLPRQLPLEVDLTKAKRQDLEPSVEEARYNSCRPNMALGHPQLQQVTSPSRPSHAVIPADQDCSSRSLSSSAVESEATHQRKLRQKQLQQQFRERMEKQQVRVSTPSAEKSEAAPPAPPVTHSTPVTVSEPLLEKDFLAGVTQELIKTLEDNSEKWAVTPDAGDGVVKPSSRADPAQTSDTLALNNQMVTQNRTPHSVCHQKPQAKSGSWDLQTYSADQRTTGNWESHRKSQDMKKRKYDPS

[21] = A Cell Based Secondary Assay To Explore Cytotoxicity of Compounds that Sensitize Mycobacterium Tuberculosis to Beta-Lactam Antibiotics.; format: functional

Chain of Neuropeptide Y receptor type 1 (P25929 whole entry): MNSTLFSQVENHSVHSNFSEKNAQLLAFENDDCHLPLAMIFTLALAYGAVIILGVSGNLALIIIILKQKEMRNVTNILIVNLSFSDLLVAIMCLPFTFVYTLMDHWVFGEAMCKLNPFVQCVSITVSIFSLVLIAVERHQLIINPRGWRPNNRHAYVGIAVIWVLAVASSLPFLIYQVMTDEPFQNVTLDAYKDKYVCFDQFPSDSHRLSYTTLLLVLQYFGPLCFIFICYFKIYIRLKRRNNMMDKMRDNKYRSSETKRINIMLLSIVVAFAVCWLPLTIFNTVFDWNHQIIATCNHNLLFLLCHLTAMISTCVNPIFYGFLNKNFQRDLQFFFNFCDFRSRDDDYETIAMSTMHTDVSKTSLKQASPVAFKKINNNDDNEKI
Chain of Neuropeptide Y receptor type 2 (P49146 whole entry): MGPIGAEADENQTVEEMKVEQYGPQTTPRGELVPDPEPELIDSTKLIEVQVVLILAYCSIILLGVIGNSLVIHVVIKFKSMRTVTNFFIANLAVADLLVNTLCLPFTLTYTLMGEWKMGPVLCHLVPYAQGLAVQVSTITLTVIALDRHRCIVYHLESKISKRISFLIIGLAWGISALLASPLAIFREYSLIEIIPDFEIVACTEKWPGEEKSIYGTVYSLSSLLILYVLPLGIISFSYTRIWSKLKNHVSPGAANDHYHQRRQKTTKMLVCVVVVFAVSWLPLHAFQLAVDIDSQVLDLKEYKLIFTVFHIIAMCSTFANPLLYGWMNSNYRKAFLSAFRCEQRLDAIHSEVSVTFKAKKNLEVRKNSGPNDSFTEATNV
Chain of Paired box protein Pax-8 (Q06710 whole entry, the tested form may be a part): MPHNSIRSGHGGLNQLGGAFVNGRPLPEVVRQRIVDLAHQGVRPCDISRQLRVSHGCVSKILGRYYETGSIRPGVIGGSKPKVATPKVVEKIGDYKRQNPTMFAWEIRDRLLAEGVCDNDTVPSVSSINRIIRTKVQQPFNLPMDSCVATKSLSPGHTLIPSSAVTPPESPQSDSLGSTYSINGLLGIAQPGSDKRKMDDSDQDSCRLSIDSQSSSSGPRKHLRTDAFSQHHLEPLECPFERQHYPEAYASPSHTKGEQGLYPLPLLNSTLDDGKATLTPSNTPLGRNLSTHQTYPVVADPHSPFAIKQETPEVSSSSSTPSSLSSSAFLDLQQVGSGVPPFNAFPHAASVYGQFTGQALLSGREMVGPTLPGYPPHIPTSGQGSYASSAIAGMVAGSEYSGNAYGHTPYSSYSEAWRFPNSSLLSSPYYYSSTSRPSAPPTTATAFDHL
Chain of Melanin-concentrating hormone receptor 1 (Q99705 whole entry): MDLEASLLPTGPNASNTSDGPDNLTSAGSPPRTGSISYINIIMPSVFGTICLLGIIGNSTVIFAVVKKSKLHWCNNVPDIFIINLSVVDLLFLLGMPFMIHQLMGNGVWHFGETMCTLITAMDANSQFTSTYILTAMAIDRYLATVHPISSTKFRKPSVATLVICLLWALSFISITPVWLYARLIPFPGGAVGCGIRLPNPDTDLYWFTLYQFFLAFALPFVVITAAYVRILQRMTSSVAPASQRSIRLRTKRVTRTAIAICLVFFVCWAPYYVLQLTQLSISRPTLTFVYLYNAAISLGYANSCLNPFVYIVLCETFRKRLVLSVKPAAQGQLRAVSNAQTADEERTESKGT
Chain of Luciferin 4-monooxygenase (P08659 whole entry): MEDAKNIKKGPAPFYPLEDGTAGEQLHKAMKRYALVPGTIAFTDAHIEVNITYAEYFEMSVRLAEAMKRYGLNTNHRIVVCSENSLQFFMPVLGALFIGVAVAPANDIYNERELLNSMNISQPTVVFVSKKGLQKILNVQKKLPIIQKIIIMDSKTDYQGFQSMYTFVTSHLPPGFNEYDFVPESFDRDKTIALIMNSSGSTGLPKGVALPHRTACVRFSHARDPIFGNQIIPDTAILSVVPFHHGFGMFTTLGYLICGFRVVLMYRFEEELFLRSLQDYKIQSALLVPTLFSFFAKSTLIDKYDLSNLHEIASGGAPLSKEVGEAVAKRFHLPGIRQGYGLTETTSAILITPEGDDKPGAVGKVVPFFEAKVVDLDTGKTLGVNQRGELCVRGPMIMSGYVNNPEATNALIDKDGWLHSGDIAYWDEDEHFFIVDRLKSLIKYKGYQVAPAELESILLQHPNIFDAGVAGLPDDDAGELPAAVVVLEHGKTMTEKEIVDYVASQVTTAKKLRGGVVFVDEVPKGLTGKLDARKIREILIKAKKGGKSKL

For `CCC(C)CCN1C(Nc2ccccc2)=NC[C@@H]1Cc1ccccc1` (stereo partly specified), the IC50 [1] was 12.5 µM (not active).

In the case of `Cc1ccc(C(=O)Nc2cnc3ccccc3c2)cc1`, the EC50 [2] is reported as > 100 µM (not active), the EC50 [3] is reported as 4.76 µM (active) and the IC50 [4] is reported as > 39.8 µM (not active). For the same compound, the EC50 [5] was > 50 µM (not active), the IC50 [6] was > 80 µM (inactive) and the AC50 [7] was 1.15 µM (active). For the same compound, the AC50 [8] was 4.04 µM (active), the AC50 [9] was 2.29 µM (active) and the AC50 [10] was 13.9 µM (active). The AC50 [11] was 3.57 µM (active), the AC50 [12] was 9.31 µM (active) and the AC50 [13] was 4.14 µM (active). For the same compound, the AC50 [14] was 2.3 µM (active) and the AC50 [15] was 46 µM (active).

In the case of `COc1ccc(Nc2oc(/C=C3/SC(=S)N(CC4CCCO4)C3=O)nc2C#N)cc1` (stereo unspecified), the EC50 [16] is reported as 12.8 µM (not active), the IC50 [17] is reported as 11.8 µM (not active) and the EC50 [18] is reported as 13.5 µM (not active).

For `CN(C)CCCN(C(=O)c1ccco1)c1nc2ccc(Br)cc2s1`, the EC50 [19] was > 100 µM (not active) and the AC50 [20] was 14.1 µM (active).

In the case of `O=S(=O)(Nc1cccc(-c2ccc(N3CCCCCC3)nn2)c1)c1ccccc1Cl`, the CC50 [21] is reported as > 40 µM (active).
